Paper PMC9765455 (Science Translational Medicine, 2022)
Read-outs that look alike come from different tables or passages of the source.

Assays:
COVID-19 = details: cited from earlier work
SARS-CoV-2 Delta = assay: CPE-based cell viability assay (MTT); details: read-out: EC50 against SARS-CoV-2 Delta
host DNA = system: host DNA; parameters: method as in PMID 33961695; details: cell-based assays; cited from earlier work
P-glycoprotein (P-gp) [1] = details: cited from earlier work
P-glycoprotein (P-gp) [2] = assay: P-gp substrate assessment; details: inferred from CP-100356 enhancement in Vero-TMPRSS2
SARS-CoV-2 Omicron BA.5 = system: SARS-CoV-2 Omicron BA.5; parameters: species or system Syrian hamsters; details: hamster, in vivo, 200 mg/kg
[3] = system: SARS-CoV-2 Alpha (lineage B.1.1.7); parameters: species or system Syrian hamsters; details: hamster, in vivo, 200 mg/kg
[4] = system: SARS-CoV-2 Omicron BA.2.75; parameters: species or system Syrian hamsters; details: hamster, in vivo, 200 mg/kg
[5] = male, Syrian, hamster, in vivo
[6] = system: SARS-CoV-2 Gamma (lineage P.1); parameters: species or system Syrian hamsters; details: hamster, in vivo, 200 mg/kg
SARS-CoV-2 Omicron BA.2 = system: SARS-CoV-2 Omicron BA.2; parameters: species or system Syrian hamsters; details: hamster, in vivo, 200 mg/kg
SARS-CoV-2 VOCs = assay: CPE-based MTT assay against SARS-CoV-2 VOCs in 293T-hACE2-TMPRSS2 cells (fig. S4); assay type: cell-based; details: 293T-hACE2-TMPRSS2, fig. S4
Procedure: Antiviral compounds and antibodies were serially diluted 2-fold increments by culture medium containing 2% FBS and plated on 96-well microplates. The diluted compounds in the plates were mixed with SARS-CoV-2 and cell suspensions. The diluted antibodies were initially incubated with SARS-CoV-2 for 30 minutes and then added to the cell suspension. Cells in the plates were cultured for 2 to 3 days, and then exposed to MTT (3-[4,5-dimethyl-2-thiazolyl]-2,5-diphenyl-2H-tetrazolium bromide) (Nacalai Tesque). Cell viability was determined by measurement of absorbance at 560 nm and 690 nm. EC50 values were defined in GraphPad Prism version 8.4.3 (GraphPad Software) with a variable slope (four parameters).
Cytopathic effect (CPE) in 293T-hACE2-TMPRSS2 cells induced by SARS-CoV-2 infection was measured at 3 dpi by 3-[4,5-dimethyl-2-thiazolyl]-2,5-diphenyl-2H-tetrazolium bromide (MTT) […]
assay. […] Uninfected cells
(1 picture or pasted object on this page, not shown here)

[7] = Pharmacokinetics after single oral administration
SARS-CoV = details: cited from earlier work
MERS-CoV = details: cited from earlier work
[8] = healthy adults, phase 1 trial; cited from earlier work
[9] = system: Calu-3 cells, Vero-TMPRSS2 cells, primary human bronchial epithelial cells; assay: Compound cytotoxicity assay (CellTiter-Glo / LDH-Glo); assay type: cell-based; details: at the examined concentrations, 3 days
SARS-CoV-2 Omicron BA.1 = system: SARS-CoV-2 Omicron BA.1; parameters: species or system Syrian hamsters; details: hamster, in vivo, 200 mg/kg
HCoV-OC43 = details: cited from earlier work
[10] = Severe acute respiratory syndrome coronavirus 2, 293 T-hACE2-TMPRSS2
[11] = Severe acute respiratory syndrome coronavirus 2, Vero/TMPRSS2, Vero-TMPRSS2
[12] = Severe acute respiratory syndrome coronavirus 2, Vero/TMPRSS2, Vero-TMPRSS2 with CP-100356

## CC(C)C(=O)OC[C@H]1O[C@@H](n2ccc(NO)nc2=O)[C@H](O)[C@@H]1O [Molnupiravir, reference compound]
COVID-19; clinical trial
  decrease of the risk of hospitalization for COVID-19: 30%
SARS-CoV-2 Delta; [10]
  EC50: 3.68 ± 1.09 µM
SARS-CoV-2 Delta; [11]
  EC50: 3.17 ± 0.217 µM
SARS-CoV-2 Delta; [12]
  EC50: 2.28 ± 0.118 µM
Host DNA
  mutagenesis: mutagenesis not only for viral RNA but also for host DNA

## O=c1nc(NO)ccn1[C@@H]1O[C@H](CO)[C@@H](O)[C@H]1O [NHC, N-hydroxycytidine]
SARS-CoV-2 Delta; [10]
  EC50: 0.538 ± 0.142 µM
SARS-CoV-2 Delta; [11]
  EC50: 0.36 ± 0.0494 µM
SARS-CoV-2 Delta; [12]
  EC50: 0.677 ± 0.00889 µM

## CC(C)(C)[C@H](NC(=O)C(F)(F)F)C(=O)N1C[C@H]2[C@@H]([C@H]1C(=O)N[C@H](C#N)C[C@@H]1CCNC1=O)C2(C)C [Nirmatrelvir]
COVID-19
  reduction in the risk of hospitalization or death: 88%
SARS-CoV-2 Delta; [10]
  EC50: 0.037 ± 0.0053 µM
SARS-CoV-2 Delta; [11]
  EC50: > 1 µM
SARS-CoV-2 Delta; [12]
  EC50: 0.132 ± 0.032 µM
P-glycoprotein (P-gp) [1]
  substrate of P-gp: major substrates

## CCC(CC)COC(=O)[C@H](C)N[P@](=O)(OC[C@H]1O[C@@](C#N)(c2ccc3c(N)ncnn23)[C@H](O)[C@@H]1O)Oc1ccccc1 [Remdesivir]
SARS-CoV-2 Delta; [10]
  EC50: < 0.0039 µM
SARS-CoV-2 Delta; [11]
  EC50: > 0.5 µM
SARS-CoV-2 Delta; [12]
  EC50: 0.032 ± 0.00452 µM
P-glycoprotein (P-gp) [1]
  substrate of P-gp: major substrates

## Cn1cnc(Cn2c(=O)[nH]/c(=N\c3cc4cn(C)nc4cc3Cl)n(Cc3cc(F)c(F)cc3F)c2=O)n1 [S-217622]
P-glycoprotein (P-gp) [2]
  substrate of P-gp: substrate of P-gp
SARS-CoV-2 Omicron BA.5
  Fig. 3B: Virus titer: n.d.(=100)
[3]
  Fig. 3B: Virus titer: n.d.(=100)
[4]
  Fig. 3A: Viral RNA: n.d.(=1)
  Fig. 3B: Virus titer: n.d.(=100)
[5]
  time at which plasma concentration reached the maximum: 0.5 to 2.67 h
[6]
  Fig. 3B: Virus titer: n.d.(=100)
SARS-CoV-2 Omicron BA.2
  Fig. 3B: Virus titer: n.d.(=100)
SARS-CoV-2 VOCs
  antiviral activity against VOCs: exhibited antiviral activity against all VOCs
[7]; 10 to 100 mg/kg
  Cmax and AUC dose proportionality: increased more than the dose ratio
[7]; hamsters, plasma
  bioavailability: excellent bioavailability
[7]; male, Syrian, hamster, plasma, po, 100 mg/kg
  half-life: 3.43 to 4.46 h
SARS-CoV
  EC50: 0.21 µM
MERS-CoV
  EC50: 1.4 µM
[8]
  bioavailability and tolerability: favorable bioavailability and tolerability
[9]
  cytotoxicity: No cytotoxicity was observed
SARS-CoV-2 Omicron BA.1
  Fig. 3A: Viral RNA: n.d.(=1)
  Fig. 3B: Virus titer: n.d.(=100)
HCoV-OC43
  EC90: 0.074 µM
SARS-CoV-2 Delta; [10]
  EC50: 0.026 ± 0.00665 µM
SARS-CoV-2 Delta; [11]
  EC50: 0.407 ± 0.0213 µM
SARS-CoV-2 Delta; [12]
  EC50: 0.069 ± 0.0112 µM
